Results reported in publication PMC7407491, “The Addition of a Synthetic LPS-Targeting Domain Improves Serum Stability While Maintaining Antimicrobial, Antibiofilm, and Cell Stimulating Properties of an Antimicrobial Peptide” (Biomolecules, 2020).
Values after ≈ are worked out from the molar mass of the structure shown. Bridge positions count the residues as written; N and C are the ends. Peptide text beside a SMILES is read from it.

How the values were obtained:
[1] = test system: pre-formed S. typhimurium biofilm; test: Pre-formed biofilm destruction assay, crystal violet; assay type: cell-based, Salmonella typhimurium; conditions: 48 h pre-formed biofilm, 3 h peptide treatment 37 °C, crystal violet OD 590 nm; p < 0.05 vs control; three independent experiments, n = 6
Description: To test the destruction of preformed biofilms, in a 96-well plate, 15 µL of overnight culture, of either E. coli, S. typhimurium, or MRSA, was added to 150 µL of minimal salt media (40 mM […]; 22 mM KH2PO4; […] NH4CL; 740 mM NaCl; 2 mM MgSO4; 0.1 mM CaCl2; 22 mM supplemented with D-Glucose) in each well. Plates were placed in a static incubator at 37 °C for 48 h; the time required for untreated wells to form biofilm. After formation, minimal salt media was removed and wells were treated with 155 µL of minimal salt media containing PG-1 or SynPG-1. […] Plates were placed in a static incubator at 37 °C for 3 h. After 3 h, treated media was removed and wells were rinsed with 155 µL of PBS to remove planktonic cells. After sufficient drying of wells, 150 µL of 0.1% crystal violet stain was added to each well and incubated at room temperature for 30 min, after which dye was removed and wells were rinsed again with 155 µL of PBS. After sufficient drying of wells, 150 µL of 70% ethanol solution was added to each well and incubated at room temperature for 30 min. After 30 min, 100 µL of each well was added to a new 96-well plate and absorbance was measured at an OD of 590 nm.

MRSP = assay type: cell-based, Methicillin-resistant Staphylococcus pseudointermedius; conditions: 2 h, pH 7
Description: (§1) Veterinary clinical isolates, including Salmonella typhimurium, multi-drug resistant Escherichia coli, methicillin-resistant Staphylococcus aureus (MRSA), and methicillin-resistant Staphylococcus pseudointermedius (MRSP), were kindly provided by Dr. H. Cai (Department of Pathobiology, University of Guelph, ON, Canada). An antibiogram for these strains is available in the supplementary text (Table S1). Gram-negative strains were cultured in Luria−Bertani (LB) broth. Gram-positive strains were cultured in Tryptic soy broth (TSB). Both cultures were grown under aerobic conditions at 37 °C.
(§2) The minimum bactericidal concentration (MBC) of SynPG-1 against the tested pathogens was identified through a broth macrodilution antimicrobial assay as previously described, with some modification. […] The buffer volume was adjusted to accommodate the addition of SynPG-1 and PG-1 so that the final solution volume was 0.5 mL for each tested concentration. Final peptide concentrations ranged from 0.1 µg/mL to 8 µg/mL. PG-1 at the known MBC (2 µg/mL E. coli; 4 µg/mL S. typhimurium; 0.5 µg/mL MRSP; 0.5 µg/mL MRSA) was considered the in-house positive control, while the suspension containing no peptide was considered the negative control. Experimental and control tubes were incubated for 2 h at 37 °C without shaking to allow for bactericidal action to occur. […] Colony numbers from each plate were recorded. […]

[2] = 25% porcine intestinal fluid (pH 6.5) in PBS, 1 mg/mL peptide, 1 h 37 °C with shaking; residual activity vs E. coli at 20 µg/mL, colony count; three independent experiments
Description: Porcine digestive fluids were collected, as previously described by Wang et al. [44]. […] The gastrointestinal tract was kept at 4 °C during dissection, and collection of contents from the stomach and upper small intestine (duodenum and jejunum) was conducted within 5 h of sacrifice. Contents were centrifuged at 10,000 rpm (9600× g) for 10 min at 4 °C, and supernatant fluid was collected and stored at −80 °C until its use in the stability experiment. The pH of the collected supernatants were 3.5 and 6.5 for gastric fluid and duodenum fluid, respectively.
Procedures similar to those used by Egger et al. [45] were used for this experiment. […] Suspension containing no peptide was considered the negative control. After incubation, 10 µL of the incubated solutions was added for a total volume of 0.5 mL, consisting of 20 µL of mid-logarithmic phase E. coli cells, diluted to a concentration of about 1 × 10^5 CFU/mL, and 470 µL of 20 mM sodium phosphate buffer (pH 7). […] Stability in porcine digestive fluid was evaluated as the relative colony growth on plates from bacterial grown with digestive fluid and peptide treatments, in comparison to plates grown from bacteria grown with digestive fluid alone.
Stability was evaluated by comparing the mean growth of colonies on plates treated with peptides incubated in digestive fluids to colonies grown when treated without peptide. […]

Escherichia coli = assay type: cell-based; conditions: 2 h, pH 7
Description: as §1, §2

[3] = Activity after incubation in serum (functional serum stability); assay type: in vitro ADME, pig
Description: To compare serum stability, a similar procedure was utilized, as described in Dong et al., with some modification. Briefly, a solution of 25% pig serum was made by diluting fresh pig serum with phosphate buffer saline (PBS). […] Suspension containing no peptide was considered the negative control. Experimental and control tubes were incubated for up to 7 or 24 h in 37 °C to allow for serum constituent interaction with the peptide. […] Experimental and control tubes were incubated for 2 h at 37 °C without shaking to allow for bactericidal action to occur. […] This experiment was carried out three independent times. […] On the other hand, SynPG-1 maintained strong antimicrobial activity even after 24 h of incubation in serum, indicated through a consistently low mean % growth, as compared to the controls seen in Figure 2b. […] All experiments were conducted three independent times. […] Data represent the mean ± SEM of three experiments. The asterisk represents p < 0.05 when compared with SynPG-1 by two-way ANOVA with a post hoc Tukey test.

## CC[C@H](C)[C@H](NC(=O)[C@H](CCCCN)NC(=O)[C@H](CCCNC(=N)N)NC(=O)[C@H](CC(C)C)NC(=O)[C@H](CC(C)C)NC(=O)[C@H](CCCNC(=N)N)NC(=O)[C@H](CCCNC(=N)N)NC(=O)[C@H](CC(C)C)NC(=O)CN)C(=O)N[C@@H](CCCNC(=N)N)C(=O)NCC(=O)N[C@@H](CCCNC(=N)N)C(=O)N[C@@H](Cc1c[nH]c2ccccc12)C(=O)N[C@@H](CCCCN)C(=O)NCC(=O)NCC(=O)NCC(=O)N[C@@H](CCCNC(=N)N)C(=O)NCC(=O)NCC(=O)N[C@@H](CCCNC(=N)N)C(=O)N[C@@H](CC(C)C)C(=O)N[C@H]1CSSC[C@@H](C(=O)N[C@H](C(=O)NCC(=O)N[C@@H](CCCNC(=N)N)C(=O)O)C(C)C)NC(=O)[C@H](C(C)C)NC(=O)[C@@H]2CSSC[C@H](NC(=O)[C@H](Cc3ccc(O)cc3)NC1=O)C(=O)N[C@@H](CCCNC(=N)N)C(=O)N[C@@H](CCCNC(=N)N)C(=O)N[C@@H](CCCNC(=N)N)C(=O)N[C@@H](Cc1ccccc1)C(=O)N2 [SynPG-1, Syn-Protegrin-1] (H-GLRRLLRKIRGRWKGGGRGGRLCYCRRRFCVCVGR-OH; disulfide 23-32, 25-30; N-terminus and C-terminus assumed)
[1]
  Concentration with significant disruption of pre-formed biofilm: 8 µg/mL
MRSP
  MBC: 0.5 (0.09) μg/mL
[2]
  Antimicrobial activity after incubation in 25% porcine intestinal fluid: mean % growth of control increased
Escherichia coli
  MBC: 2 µg/mL (≈ 0.486 µM)
[3]
  Time of incubation in 25% serum for which antimicrobial activity is maintained: ≤ 24 h
[3]; 24 h versus 2 h of retained activity in 25% serum
  Increase in stability in 25% serum versus PG-1: 12 fold
